Data taken from PubChem BioAssay (NCI).
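Dose response: 5 concentrations. Exposure: 48 h. Format: 96-well plates. Endpoint: linear interpolation; highest concentration if not reached. At the TGI there is no net growth.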

Legend:
Experiment in all cases: NCI-60 cell line screen, 48 h
[1] = system: SK-MEL-2 melanoma
[2] = system: A549 NSCLC
[3] = system: HOP-62 NSCLC
[4] = system: OVCAR-3 ovarian
[5] = system: K-562 leukemia
[6] = system: SNB-75 CNS
[7] = system: M14 melanoma
[8] = system: ACHN renal
[9] = system: OVCAR-5 ovarian
[10] = system: NCI/ADR-RES ovarian
[11] = system: SK-MEL-5 melanoma
[12] = system: OVCAR-4 ovarian
[13] = system: EKVX NSCLC
[14] = system: HCT-15 colon
[15] = system: RPMI-8226 leukemia
[16] = system: BT-549 breast
[17] = system: UACC-257 melanoma
[18] = system: IGROV1 ovarian
[19] = system: CAKI-1 renal
[20] = system: MDA-MB-231 breast
[21] = system: HOP-92 NSCLC
[22] = system: MALME-3M melanoma
[23] = system: OVCAR-8 ovarian
[24] = system: SK-MEL-28 melanoma
[25] = system: SF-539 CNS
[26] = system: DU-145 prostate
[27] = system: TK-10 renal
[28] = system: MDA-N
[29] = system: SK-OV-3 ovarian
[30] = system: UO-31 renal
[31] = system: PC-3 prostate
[32] = system: HL-60(TB) leukemia
[33] = system: SR leukemia
[34] = system: LOX IMVI melanoma
[35] = system: NCI-H460 lung
[36] = system: U251 CNS
[37] = system: HCT-116 colon
[38] = system: A498 renal
[39] = system: UACC-62 melanoma
[40] = system: SF-268 CNS
[41] = system: T-47D breast
[42] = system: NCI-H522 lung
[43] = system: SNB-19 CNS
[44] = system: 786-0 renal
[45] = system: MDA-MB-435
[46] = system: HCC-2998 colon
[47] = system: NCI-H23 lung
[48] = system: SN12C renal
[49] = system: NCI-H226 lung
[50] = system: SW-620 colon
[51] = system: HT29 colon
[52] = system: RXF 393 renal
[53] = system: MOLT-4 leukemia
[54] = system: KM12 colon
[55] = system: CCRF-CEM leukemia
[56] = system: COLO 205 colon
[57] = system: MCF7 breast
[58] = system: SF-295 CNS

Measured: TGI

O=C(NCCCNCCCNC(=O)c1cc(-c2ccccc2)nc2ccccc12)c1cc(-c2ccccc2)nc2ccccc12
3.34 µM: [2]
3.53 µM: [5] | [9]
2.99 µM: [31]
2.96 µM: [6]
3.73 µM: [17]
4.95 µM: [29]
3.13 µM: [28]
4.17 µM: [21]
> 100 µM: [14] | [23] | [25]
3.22 µM: [27]
3.19 µM: [7] | [18]
3.32 µM: [12] | [13]
4.13 µM: [10]
3.23 µM: [4]
3.38 µM: [30]
3.5 µM: [22]
> 23.7 µM: [16]
3.7 µM: [19]
3.45 µM: [11]
3.2 µM: [8]
3.14 µM: [20]
3.55 µM: [1]
3.09 µM: [24]
3.16 µM: [32]
3.08 µM: [26]
2.16 µM: [3]
4.78 µM: [15]

Cc1cccc(N=NC(=O)NNc2cccc(C)c2C)c1C
60.2 µM: [34]
86.7 µM: [3]
92.6 µM: [38]
95.7 µM: [8]
86 µM: [44]
31.7 µM: [46]
64.9 µM: [45]
73.3 µM: [22]
57.1 µM: [32]
72.2 µM: [37]
74.8 µM: [15]
53.6 µM: [42]
46.7 µM: [1]
not listed: [10] | [13] | [21] | [25] | [29] | [52] | [53] | [54] | [55] | [56] | [57] | [58]
> 100 µM: all other assays above

OC[C@H]1CCCC1O (some centres not stated)
not listed: [3] | [13] | [29] | [34]
> 100 µM: all other assays above
